Laboratory results reported in the NIST ThermoML archive (doi:10.1016/j.fluid.2013.01.025).

Tests used:
[1] = 101 kPa, Liquid, Vibrating tube method
[2] = xn = mol fraction of the nth substance listed; details: 101 kPa, Liquid, Vibrating tube method

OCCO [1,2-ethanediol]
[1]
Details	mass density [kg/m3]
278.15 K	1123.8
323.15 K	1092.14

OCCO [1,2-ethanediol] + O
mass density [kg/m3], [2]
Details	278.15 K	288.15 K	298.15 K	308.15 K	323.15 K
x1 = 0.02277	1010.24	1008.82	1006.33	1002.99	996.6
x1 = 0.05488	1023.85	1021.56	1018.45	1014.58	1007.61
x1 = 0.07829	1032.87	1030.01	1026.44	1022.21	1014.78
x1 = 0.1012	1040.89	1037.48	1033.52	1028.99	1021.16
x1 = 0.158	1057.7	1053.26	1048.42	1043.17	1034.52
x1 = 0.2	1067.88	1062.86	1057.55	1051.92	1042.75
x1 = 0.299	1085.43	1079.59	1073.54	1067.25	1057.39
x1 = 0.3917	1096.56	1090.28	1083.85	1077.24	1067.02
x1 = 0.5006	1105.57	1098.99	1092.32	1085.51	1075.02
x1 = 0.6041	1111.55	1104.81	1098	1091.09	1080.49
x1 = 0.7063	1115.93	1109.12	1102.24	1095.28	1084.61
x1 = 0.8049	1119.14	1112.26	1105.34	1098.34	1087.65
x1 = 0.9034	1121.73	1114.79	1107.84	1100.82	1090.14
x1 = 0.9535	1122.81	1115.88	1108.92	1101.89	1091.19
x1 = 0.9826	1123.42	1116.49	–	1102.48	1091.78
x1 = 1	1123.8	–	–	–	1092.14

O [water] + OCCO
[2], x2 = 0
Details	mass density [kg/m3]
278.15 K	999.96
323.15 K	988.03
